For series [1], the system named is A549. Nature of the series: Antiproliferative activity against human A549 cells assessed as reduction in cell viability at 20 uM measured for 72 hrs by MTT assay. The class given is functional, cell-based. For orientation: Tetrazolium dyes change colour on reduction, which living cells bring about.
Series [2] in a line: Selectivity index, ratio of IC50 for cytotoxicity against human NHDF cells to IC50 for cytotoxicity against human EJ-28 cells.
Series [3] deals with EJ-28. Nature of the series: Antiproliferative activity against human EJ-28 cells assessed as reduction in cell viability at 20 uM measured for 72 hrs by MTT assay. The class given is functional, cell-based.
Series [4] in a line: Selectivity index, ratio of IC50 for cytotoxicity against human NHDF cells to IC50 for cytotoxicity against human SW620 cells.
The nature of series [5]: Selectivity index, ratio of IC50 for cytotoxicity against human NHDF cells to IC50 for cytotoxicity against human MCF7 cells. It is filed as toxicity, cell-based. Particulars: NHDF cells and MCF7 cells, read-out: Ratio IC50.
The test system of series [6] is HT-1080. Nature of the series: Cytotoxicity against human HT-1080 cells assessed inhibition of cell growth incubated for 72 hrs by MTT assay. It is filed as functional, cell-based. Particulars: HT-1080, 72 h.
The subject of series [7] is SW-620. Nature of the series: Cytotoxicity against human SW620 cells assessed inhibition of cell growth incubated for 72 hrs by MTT assay. The class given is functional, cell-based. Particulars: SW-620, 72 h.
The test system of series [8] is A549. Nature of the series: Cytotoxicity against human A549 cells assessed inhibition of cell growth incubated for 72 hrs by MTT assay. It is filed as functional, cell-based. Particulars: A549, 72 h.
Series [9] has as its system MCF7. Briefly: Cytotoxicity against human MCF7 cells assessed inhibition of cell growth incubated for 72 hrs by MTT assay. The class given is functional, cell-based. Particulars: MCF7, 72 h.
The nature of series [10]: Selectivity index, ratio of IC50 for cytotoxicity against human NHDF cells to IC50 for cytotoxicity against human A549 cells. The class given is toxicity, cell-based. The settings on record: NHDF cells and A549 cells, read-out: Ratio IC50.
The subject of series [11] is SW-620. Nature of the series: Antiproliferative activity against human SW620 cells assessed as reduction in cell viability at 20 uM measured for 72 hrs by MTT assay. It is filed as functional, cell-based.
Series [12] relates to EJ-28. Briefly: Cytotoxicity against human EJ-28 cells assessed inhibition of cell growth incubated for 72 hrs by MTT assay. The class given is functional, cell-based. The settings on record: EJ-28, 72 h.
In series [13] the test system is HT-1080. Nature of the series: Antiproliferative activity against human HT-1080 cells assessed as reduction in cell viability at 20 uM measured for 72 hrs by MTT assay. It is filed as functional, cell-based.
Series [14] concerns MCF7. Nature of the series: Antiproliferative activity against human MCF7 cells assessed as reduction in cell viability at 20 uM measured for 72 hrs by MTT assay. It is filed as functional, cell-based.
The nature of series [15]: Selectivity index, ratio of IC50 for cytotoxicity against human NHDF cells to IC50 for cytotoxicity against human HT-1080 cells.
The nature of series [16]: Cytotoxicity against human NHDF cells assessed inhibition of cell growth incubated for 72 hrs by MTT assay. The class given is toxicity, cell-based.

Structures are written as SMILES. Calls of active or inactive are those of the source. No cut-off for these calls is given here.

Usually IC50 stands for the concentration needed to halve the response being measured.

Regarding `Oc1ccc(Cl)cc1-c1cc(/C=C/c2ccc(Cl)cc2)nn1-c1ccccc1`, the outcome in [1], in series [3], in series [11], in [13] and in [14] was Active. For the same molecule, the “Ratio IC50” value in series [2], in series [4] and in [15] was 2 in each case. Further, the selectivity ratio in series [5] and in series [10] was 2 in each case. Besides, the IC50 came to 17.4 µM in series [6]; 16.6 µM in series [7]; 21.5 µM in series [8]; 10.6 µM in series [9]; 6.5 µM in series [12]. Also, the IC50 at 72 h in [16] was 42.9 µM.
With `COc1ccc(/C=C/c2cc(-c3cc(Cl)ccc3O)n(-c3ccccc3)n2)cc1`, the result in series [1], in series [3], in series [11], in series [13] and in [14] was Active. Also, the “Ratio IC50” value in series [2], in series [4] and in series [15] was 2.2 in each case. Also, the selectivity ratio in [5] and in [10] was 2.2 each time. The concentration for half-maximal inhibition (IC50) in series [6] is 17.2 µM; in series [7] it was 19.8 µM; in series [8] it was 20.9 µM; in series [9], 12.1 µM; in [12] it was 14.3 µM. In [16], the concentration for half-maximal inhibition (IC50) at 72 h is 47 µM.
For `Oc1ccc(Cl)cc1-c1cc(/C=C/c2cccs2)nn1-c1ccccc1`, the result in series [1], in [3], in series [11], in [13] and in [14] was Active. The “Ratio IC50” value in [2], in series [4] and in series [15] was 2 in each case. Moreover, the selectivity ratio in [5] and in series [10] was 2 throughout. For the same molecule, the concentration for half-maximal inhibition (IC50) was found to be 19.6 µM in series [6]; 19 µM in series [7]; 17.1 µM in [8]; 5.5 µM in series [9]; 11.6 µM in [12]. The same molecule showed a half-maximal inhibitory concentration (IC50) at 72 h in [16] of 39.6 µM.
With `Oc1ccc(Cl)cc1-c1cc(/C=C/c2cccc(Cl)c2)nn1-c1ccccc1`, the result in [1], in series [3], in series [11], in series [13] and in series [14] was Active. For the same molecule, the “Ratio IC50” value in [2], in series [4] and in series [15] was 1.2 throughout. The selectivity ratio in series [5] and in series [10] was 1.2 each time. In addition, the IC50 is 12.4 µM in [6]; 8.8 µM in series [7]; 13.3 µM in [8]; 8.1 µM in [9]; 3.7 µM in series [12]. The half-maximal inhibitory concentration (IC50) at 72 h in series [16] stood at 16.2 µM.
As to `Oc1ccc(Cl)cc1-c1cc(/C=C/c2ccc(Cl)s2)nn1-c1ccccc1`, the result in series [1], in [3], in [11], in [13] and in series [14] was Active. The “Ratio IC50” value in [2], in series [4] and in series [15] was 1.4 each time. Further, the selectivity ratio in [5] and in series [10] was 1.4 each time. Besides, the concentration for half-maximal inhibition (IC50) in series [6] worked out at 13.5 µM; in series [7], 10.4 µM; in series [8], 13.3 µM; in series [9] it was 8.7 µM; in [12], 10.1 µM. Further, it took 19.2 µM to reach half-maximal inhibition in [16] (IC50 at 72 h).
As to `Oc1ccccc1-c1cc(/C=C/c2ccc(Cl)cc2)nn1-c1ccccc1`, the result in [1], in [3], in [11], in series [13] and in series [14] was Active. Moreover, the “Ratio IC50” value in [2], in series [4] and in [15] was 1.5 in each case. Moreover, the selectivity ratio in series [5] and in series [10] was 1.5 in each case. For the same molecule, the half-maximal inhibitory concentration (IC50) in [6] was 15.8 µM; in [7] it was 16.5 µM; in series [8], 26.3 µM; in [9] it was 15.2 µM; in series [12], 13.4 µM. This molecule displayed an IC50 at 72 h in [16] of 40.5 µM.
As to `COc1cccc(/C=C/c2cc(-c3ccccc3O)n(-c3ccccc3)n2)c1`, the result in series [1], in series [3], in series [11], in [13] and in series [14] was Active. Besides, the “Ratio IC50” value in series [2], in [4] and in series [15] was >2.2 in each case. In addition, the selectivity ratio in series [5] and in [10] was > 2.2 in each case. Besides, the IC50 in [6] is 20 µM; in series [7], 22.1 µM; in series [8], 22.8 µM; in series [9], 16.2 µM; in [12], 14.3 µM. For the same molecule, the IC50 at 72 h in series [16] was > 50 µM.
Consider `COc1ccc(/C=C/c2cc(-c3cc(Cl)ccc3O)n(-c3ccccc3)n2)cc1OC`, for which the result in series [1], in series [3], in series [11], in series [13] and in series [14] was Active. The “Ratio IC50” value in series [2], in series [4] and in series [15] was 2.5 throughout. For the same molecule, the selectivity ratio in series [5] and in series [10] was 2.5 each time. Moreover, the 50% inhibitory concentration (IC50) was found to be 14.5 µM in series [6]; 16.1 µM in series [7]; 15.3 µM in series [8]; 9.6 µM in [9]; 17.6 µM in [12]. The IC50 at 72 h in [16] worked out at 39.9 µM.
For the molecule `Oc1ccccc1-c1cc(/C=C/c2ccc(Cl)s2)nn1-c1ccccc1`, the result in [1], in series [3], in series [11], in [13] and in series [14] was Active. Also, the “Ratio IC50” value in [2] came to 1.1; in series [4] it was 0.9; in series [15] it was 1.1. In addition, the selectivity ratio in series [5] and in series [10] was 1.1 throughout. Besides, the concentration for half-maximal inhibition (IC50) in [6] was 17.3 µM; in [7], 16.3 µM; in series [8], 21.1 µM; in series [9], 14.5 µM; in [12], 13.6 µM. In series [16], this molecule returned a half-inhibitory concentration (IC50) at 72 h of 18.5 µM.
Take `Oc1ccccc1-c1cc(/C=C/c2cccc(Cl)c2)nn1-c1ccccc1`: the result in series [1], in series [3], in [11], in series [13] and in series [14] was Active. Besides, the “Ratio IC50” value in series [2], in series [4] and in [15] was 1.6 each time. Further, the selectivity ratio in [5] and in series [10] was 1.6 in each case. Further, the 50% inhibitory concentration (IC50) worked out at 13.8 µM in series [6]; 11.6 µM in series [7]; 24.3 µM in series [8]; 10.9 µM in series [9]; 8.9 µM in [12]. The IC50 at 72 h in series [16] was 39.4 µM.
